# Calls of active or inactive are those of the source. No cut-off for these calls is given here.
# Assays:
# [1] = AUC (0 to 24 hrs) in Sprague-Dawley rat at 2 mg/kg, iv administered as single dose by LC-MS/MS analysis; assay type: ADME, organism-based; set-up: dose 2 mg/kg, time < 24 hr, route intravenous; settings: in vivo
# [2] = target: Cyclin-dependent kinase 4/cyclin D1 (Homo sapiens) (UniProt P11802+P24385); experiment: Inhibition of recombinant full length human GST-tagged CDK4/Cyclin-D1 expressed in baculovirus expression system at 0.1 uM by TR-FRET assay relative to control
# [3] = target: T1, CDK8/Cyclin C (Homo sapiens) (UniProt P49336+P24863); experiment: Inhibition of recombinant full length human His-tagged CDK8/Cyclin-C expressed in baculovirus expression system at 0.1 uM by LanthaScreen assay relative to control
# [4] = target: Aurora kinase A (Homo sapiens) (UniProt O14965); experiment: Inhibition of recombinant full length human His-tagged AURKA expressed in baculovirus expression system at 0.1 uM by Z'-Lyte assay relative to control
# Aurora kinase A (Homo sapiens), sequence (O14965 whole entry): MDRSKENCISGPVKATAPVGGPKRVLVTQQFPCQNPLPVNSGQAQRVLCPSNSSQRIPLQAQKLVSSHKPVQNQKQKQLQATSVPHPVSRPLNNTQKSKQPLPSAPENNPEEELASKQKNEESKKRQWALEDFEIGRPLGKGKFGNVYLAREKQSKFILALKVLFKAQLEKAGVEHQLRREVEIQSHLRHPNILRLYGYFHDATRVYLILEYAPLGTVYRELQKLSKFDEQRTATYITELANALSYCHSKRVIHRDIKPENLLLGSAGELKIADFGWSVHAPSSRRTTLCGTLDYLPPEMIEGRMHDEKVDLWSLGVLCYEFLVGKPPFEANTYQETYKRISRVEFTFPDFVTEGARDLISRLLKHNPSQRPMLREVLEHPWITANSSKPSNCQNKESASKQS
# [5] = test system: Epidermal growth factor receptor (Homo sapiens), P00533 [L858R,T790M]; experiment: Inhibition of recombinant human GST-tagged EGFR T790M/L858R double mutant expressed in baculovirus expression system at 0.1 uM by TR-FRET assay relative to control
# Epidermal growth factor receptor (Homo sapiens), P00533 [L858R,T790M], sequence (P00533 whole entry T790M/L858R, looked up, the tested form may be a part): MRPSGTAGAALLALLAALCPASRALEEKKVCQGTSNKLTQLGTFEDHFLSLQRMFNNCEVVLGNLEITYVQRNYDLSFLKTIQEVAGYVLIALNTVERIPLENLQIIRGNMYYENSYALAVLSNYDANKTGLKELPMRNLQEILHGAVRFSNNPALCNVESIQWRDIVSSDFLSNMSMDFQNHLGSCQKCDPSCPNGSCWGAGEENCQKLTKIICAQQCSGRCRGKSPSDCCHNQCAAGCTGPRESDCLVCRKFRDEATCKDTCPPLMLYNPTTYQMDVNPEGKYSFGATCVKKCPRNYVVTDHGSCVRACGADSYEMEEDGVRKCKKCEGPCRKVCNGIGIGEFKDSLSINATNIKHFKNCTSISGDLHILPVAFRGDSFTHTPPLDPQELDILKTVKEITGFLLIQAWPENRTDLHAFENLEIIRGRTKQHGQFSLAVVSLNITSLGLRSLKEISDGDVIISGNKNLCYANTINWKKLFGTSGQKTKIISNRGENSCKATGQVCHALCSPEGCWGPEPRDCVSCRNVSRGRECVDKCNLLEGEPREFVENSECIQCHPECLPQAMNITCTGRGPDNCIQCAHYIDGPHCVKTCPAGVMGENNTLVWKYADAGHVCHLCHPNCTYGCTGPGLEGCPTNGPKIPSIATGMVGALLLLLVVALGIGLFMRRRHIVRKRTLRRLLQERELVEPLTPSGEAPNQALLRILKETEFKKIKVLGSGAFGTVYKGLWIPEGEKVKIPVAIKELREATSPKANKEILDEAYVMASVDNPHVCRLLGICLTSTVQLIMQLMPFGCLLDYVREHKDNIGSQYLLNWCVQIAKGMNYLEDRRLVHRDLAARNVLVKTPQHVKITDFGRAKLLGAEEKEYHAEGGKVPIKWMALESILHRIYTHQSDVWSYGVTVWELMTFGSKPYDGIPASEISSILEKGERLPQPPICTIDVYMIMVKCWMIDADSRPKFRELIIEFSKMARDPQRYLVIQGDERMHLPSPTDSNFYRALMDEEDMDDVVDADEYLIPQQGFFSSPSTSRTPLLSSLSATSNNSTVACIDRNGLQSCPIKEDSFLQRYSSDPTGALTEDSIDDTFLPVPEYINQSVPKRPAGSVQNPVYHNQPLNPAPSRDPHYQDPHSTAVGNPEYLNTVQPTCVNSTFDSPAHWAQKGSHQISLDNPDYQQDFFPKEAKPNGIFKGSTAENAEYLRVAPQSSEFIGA
# [6] = target: Epidermal growth factor receptor (Homo sapiens) (UniProt P00533); experiment: Inhibition of recombinant human GST-tagged EGFR cytoplasmic domain expressed in baculovirus expression system at 0.1 uM by TR-FRET assay relative to control
# [7] = target: G protein-coupled receptor kinase 3 (Homo sapiens) (UniProt P35626); experiment: Inhibition of recombinant human full length GST-tagged GRK3 expressed in baculovirus expression system at 0.1 uM by Z'-Lyte assay relative to control
# [8] = target: Serine/threonine-protein kinase MARK1 (Homo sapiens) (UniProt Q9P0L2); experiment: Inhibition of recombinant human full length GST-tagged MARK1 expressed in baculovirus expression system at 0.1 uM by Z'-Lyte assay relative to control
# [9] = target: Serine/threonine-protein kinase PAK 2 (Homo sapiens) (UniProt Q13177); experiment: Inhibition of recombinant human full length GST-tagged PAK2 expressed in baculovirus expression system at 0.1 uM by Z'-Lyte assay relative to control
# [10] = target: T2, PI3-kinase p110-alpha/p85-alpha (Homo sapiens) (UniProt P27986+P42336); experiment: Inhibition of recombinant full-length human N-terminal His6-tagged p110alpha/p85alpha expressed in baculovirus infected Sf21 cells at 0.1 uM by ADP-Glo assay relative to control
# [11] = target: Proto-oncogene tyrosine-protein kinase receptor Ret (Homo sapiens) (UniProt P07949); experiment: Inhibition of recombinant human GST-tagged RET cytoplasmic domain (658 to 1114 residues) expressed in baculovirus expression system at 0.1 uM by Z'-Lyte assay relative to control
# Proto-oncogene tyrosine-protein kinase receptor Ret (Homo sapiens), sequence (P07949 whole entry, the tested form may be a part): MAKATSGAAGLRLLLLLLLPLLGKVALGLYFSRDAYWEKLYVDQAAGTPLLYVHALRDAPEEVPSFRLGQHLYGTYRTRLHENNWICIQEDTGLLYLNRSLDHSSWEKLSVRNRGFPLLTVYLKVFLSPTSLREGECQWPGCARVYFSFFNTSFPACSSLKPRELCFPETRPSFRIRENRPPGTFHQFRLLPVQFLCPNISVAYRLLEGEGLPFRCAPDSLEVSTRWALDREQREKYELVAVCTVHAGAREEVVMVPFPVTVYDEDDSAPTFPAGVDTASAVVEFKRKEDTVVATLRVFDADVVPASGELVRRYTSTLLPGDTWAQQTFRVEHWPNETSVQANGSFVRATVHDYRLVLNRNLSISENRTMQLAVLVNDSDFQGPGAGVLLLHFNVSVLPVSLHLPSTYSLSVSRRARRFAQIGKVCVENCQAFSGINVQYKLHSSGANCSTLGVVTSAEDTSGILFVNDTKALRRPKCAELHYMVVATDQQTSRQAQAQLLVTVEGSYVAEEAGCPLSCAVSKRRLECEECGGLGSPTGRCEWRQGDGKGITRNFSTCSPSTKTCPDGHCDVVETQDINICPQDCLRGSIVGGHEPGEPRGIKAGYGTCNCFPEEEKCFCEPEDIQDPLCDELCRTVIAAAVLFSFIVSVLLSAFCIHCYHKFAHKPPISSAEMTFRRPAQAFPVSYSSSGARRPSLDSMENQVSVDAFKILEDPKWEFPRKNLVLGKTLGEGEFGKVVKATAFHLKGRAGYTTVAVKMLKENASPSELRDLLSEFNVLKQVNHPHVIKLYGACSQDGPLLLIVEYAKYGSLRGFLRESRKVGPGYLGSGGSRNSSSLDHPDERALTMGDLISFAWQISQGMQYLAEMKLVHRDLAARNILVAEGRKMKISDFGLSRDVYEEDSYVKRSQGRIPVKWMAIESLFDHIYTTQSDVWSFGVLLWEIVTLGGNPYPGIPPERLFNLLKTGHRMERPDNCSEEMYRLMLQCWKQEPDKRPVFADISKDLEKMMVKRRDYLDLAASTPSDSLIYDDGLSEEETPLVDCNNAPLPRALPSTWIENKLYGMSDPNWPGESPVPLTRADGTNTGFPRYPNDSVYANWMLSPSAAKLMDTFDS
# [12] = test system: Proto-oncogene tyrosine-protein kinase receptor Ret (Homo sapiens), P07949 [V804L]; experiment: Inhibition of recombinant human GST-tagged RET V804L mutant expressed in baculovirus expression system at 0.1 uM by Z'-Lyte assay relative to control
# Proto-oncogene tyrosine-protein kinase receptor Ret (Homo sapiens), P07949 [V804L], sequence (P07949 whole entry V804L): as the sequence (P07949 whole entry, the tested form may be a part) above, with V804L counted along it
# [13] = target: Serine/threonine-protein kinase TAO2 (Homo sapiens) (UniProt Q9UL54); experiment: Inhibition of recombinant human GST-tagged TAOK2 expressed in baculovirus expression system at 0.1 uM by Z'-Lyte assay relative to control
# [14] = target: T1, CDK8/Cyclin C (Homo sapiens); experiment: Inhibition of recombinant full length human His-tagged CDK8/Cyclin-C expressed in baculovirus expression system at 1 uM by LanthaScreen assay relative to control
# [15] = target: Serine/threonine-protein kinase Chk2 (Homo sapiens) (UniProt O96017); experiment: Inhibition of recombinant full length human His-tagged CHEK2 expressed in baculovirus expression system at 1 uM by Z'-Lyte assay relative to control
# Serine/threonine-protein kinase Chk2 (Homo sapiens), sequence (O96017 whole entry): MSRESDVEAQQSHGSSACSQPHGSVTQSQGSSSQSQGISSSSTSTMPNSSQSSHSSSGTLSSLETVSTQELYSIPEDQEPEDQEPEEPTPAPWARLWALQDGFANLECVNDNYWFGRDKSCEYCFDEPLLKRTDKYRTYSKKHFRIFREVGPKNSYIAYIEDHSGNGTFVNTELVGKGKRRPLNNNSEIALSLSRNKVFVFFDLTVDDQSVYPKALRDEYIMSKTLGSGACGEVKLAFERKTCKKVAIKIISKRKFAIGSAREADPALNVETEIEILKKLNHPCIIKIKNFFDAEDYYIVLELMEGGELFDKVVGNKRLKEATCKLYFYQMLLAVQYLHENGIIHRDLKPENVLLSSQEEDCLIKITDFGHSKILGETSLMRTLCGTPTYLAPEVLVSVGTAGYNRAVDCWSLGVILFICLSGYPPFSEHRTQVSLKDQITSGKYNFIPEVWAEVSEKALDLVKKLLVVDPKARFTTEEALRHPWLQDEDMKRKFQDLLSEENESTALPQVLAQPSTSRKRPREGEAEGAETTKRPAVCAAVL
# [16] = test system: Epidermal growth factor receptor (Homo sapiens), P00533 [UNDEFINED MUTATION]; experiment: Inhibition of recombinant human EGFR d746 to 750 deletion/T790M mutant at 1 uM by TR-FRET assay relative to control
# [17] = target: Mitogen-activated protein kinase 1 (Homo sapiens) (UniProt P28482); experiment: Inhibition of recombinant human full length GST-tagged ERK2 expressed in Escherichia coli at 1 uM by Z'-Lyte assay relative to control
# Mitogen-activated protein kinase 1 (Homo sapiens), sequence (P28482 whole entry): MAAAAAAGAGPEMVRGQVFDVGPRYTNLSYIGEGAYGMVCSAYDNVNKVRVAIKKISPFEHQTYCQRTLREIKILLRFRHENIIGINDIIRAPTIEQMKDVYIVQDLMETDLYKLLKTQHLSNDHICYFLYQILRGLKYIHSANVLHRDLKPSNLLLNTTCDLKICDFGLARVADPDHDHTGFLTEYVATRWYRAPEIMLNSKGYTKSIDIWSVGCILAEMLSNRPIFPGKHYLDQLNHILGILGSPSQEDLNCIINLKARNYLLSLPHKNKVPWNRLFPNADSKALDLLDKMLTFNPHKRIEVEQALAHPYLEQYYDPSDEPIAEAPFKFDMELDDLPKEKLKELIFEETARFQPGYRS
# [18] = target: G protein-coupled receptor kinase 6 (Homo sapiens) (UniProt P43250); experiment: Inhibition of recombinant human full length GST-tagged GRK6 expressed in baculovirus expression system at 1 uM by Z'-Lyte assay relative to control
# G protein-coupled receptor kinase 6 (Homo sapiens), sequence (P43250 whole entry, looked up): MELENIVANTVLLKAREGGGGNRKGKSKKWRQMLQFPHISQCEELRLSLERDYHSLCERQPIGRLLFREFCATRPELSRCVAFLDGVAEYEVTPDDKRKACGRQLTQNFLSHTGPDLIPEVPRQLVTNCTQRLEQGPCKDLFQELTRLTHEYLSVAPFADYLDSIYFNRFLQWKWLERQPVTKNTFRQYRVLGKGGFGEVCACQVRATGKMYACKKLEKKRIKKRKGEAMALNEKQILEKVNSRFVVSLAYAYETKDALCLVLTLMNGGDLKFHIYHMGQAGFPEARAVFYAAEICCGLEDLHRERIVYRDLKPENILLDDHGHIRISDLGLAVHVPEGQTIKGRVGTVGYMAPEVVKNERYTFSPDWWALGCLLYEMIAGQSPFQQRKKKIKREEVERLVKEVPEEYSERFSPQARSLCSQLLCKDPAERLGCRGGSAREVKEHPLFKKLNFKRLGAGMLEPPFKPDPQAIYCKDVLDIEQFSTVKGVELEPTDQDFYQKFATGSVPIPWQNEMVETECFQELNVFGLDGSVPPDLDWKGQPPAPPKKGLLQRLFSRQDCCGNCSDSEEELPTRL
# [19] = target: Tyrosine-protein kinase JAK1 (Homo sapiens) (UniProt P23458); experiment: Inhibition of recombinant human GST-tagged JAK1 expressed in baculovirus expression system at 1 uM by TR-FRET assay relative to control
# [20] = target: MAP kinase-activated protein kinase 2 (Homo sapiens) (UniProt P49137); experiment: Inhibition of recombinant human full length His-tagged MK2 expressed in Escherichia coli at 1 uM by Z'-Lyte assay relative to control
# [21] = target: Serine/threonine-protein kinase PAK 1 (Homo sapiens) (UniProt Q13153); experiment: Inhibition of recombinant human full length GST-tagged PAK1 expressed in baculovirus expression system at 1 uM by Z'-Lyte assay relative to control
# Serine/threonine-protein kinase PAK 1 (Homo sapiens), sequence (Q13153 whole entry): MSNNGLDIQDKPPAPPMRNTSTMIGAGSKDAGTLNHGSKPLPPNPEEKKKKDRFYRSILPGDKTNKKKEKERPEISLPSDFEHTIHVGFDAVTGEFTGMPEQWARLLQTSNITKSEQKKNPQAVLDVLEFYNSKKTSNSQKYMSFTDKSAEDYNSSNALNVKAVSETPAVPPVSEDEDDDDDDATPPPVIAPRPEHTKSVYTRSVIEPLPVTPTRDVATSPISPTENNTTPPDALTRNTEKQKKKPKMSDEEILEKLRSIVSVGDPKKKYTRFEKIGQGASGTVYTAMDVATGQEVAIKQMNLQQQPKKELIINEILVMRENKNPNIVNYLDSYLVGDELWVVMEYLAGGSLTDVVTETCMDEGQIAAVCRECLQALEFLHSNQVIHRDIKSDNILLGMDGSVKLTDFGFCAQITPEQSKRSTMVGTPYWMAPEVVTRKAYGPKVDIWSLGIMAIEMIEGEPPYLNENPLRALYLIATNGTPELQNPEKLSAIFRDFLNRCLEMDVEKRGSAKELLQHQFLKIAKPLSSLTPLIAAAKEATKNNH
# [22] = target: T2, PI3-kinase p110-alpha/p85-alpha (Homo sapiens); experiment: Inhibition of recombinant full-length human N-terminal His6-tagged p110alpha/p85alpha expressed in baculovirus infected Sf21 cells at 1 uM by ADP-Glo assay relative to control
# [23] = target: STE20-like serine/threonine-protein kinase (Homo sapiens) (UniProt Q9H2G2); experiment: Inhibition of recombinant human full length GST-tagged SLK expressed in baculovirus expression system at 1 uM by LanthaScreen assay relative to control
# [24] = Tmax in CD-1 mouse brain at 10 mg/kg, po administered as single dose by LC-MS/MS analysis; assay type: ADME, organism-based
# [25] = AUC (0 to infinity) in CD-1 mouse brain at 10 mg/kg, po administered as single dose by LC-MS/MS analysis; assay type: ADME, organism-based; set-up: dose 10 mg/kg, time infinity, route oral; settings: in vivo
# Mus musculus [26] = experiment: In vivo inhibition of CDK4/6 in nude mouse xenografted with human COLO205 cells assessed as reduction in Ser-780-phosphorylated Rb level in tumor administered via oral gavage after 24 hrs by Western blot analysis; assay type: functional, organism-based
# Mus musculus [27] = experiment: In vivo inhibition of CDK4/6 in nude mouse xenografted with human COLO205 cells assessed as reduction in Ser-780-phosphorylated Rb level in tumor at 100 mg/kg administered via oral gavage measured after 24 to 48 hrs by Western blot analysis; assay type: functional, organism-based
# U-87 MG [28] = experiment: Antitumor activity against luciferase-fused human U87MG cells orthotopically xenografted in nude mouse assessed as increase in mouse life span at 25 mg/kg, po qd for 5 weeks relative to control; assay type: functional, U-87MG ATCC; settings: 840 h
# U-87 MG [29] = experiment: Antitumor activity against luciferase-fused human U87MG cells orthotopically xenografted in nude mouse assessed as increase in mouse life span at 50 mg/kg, po qd for 5 weeks relative to control; assay type: functional, U-87MG ATCC; settings: 840 h
# Mus musculus [30] = experiment: Toxicity in nude mouse orthotopically xenografted with luciferase-fused human U87MG cells assessed as body weight loss at 3.125 to 25 mg/kg, po qd for 5 weeks; assay type: organism-based; settings: in vivo, 840 h
smiles,measurement,setting,value
CC1=Nc2c(F)cc(-c3nc(Nc4ccc(C5CCN(C)CC5)cn4)ncc3F)cc2C12CCCC2 [CROZBACICLIB],AUC(0-t) at 24 h,[1],886 ng·h/mL
same,inhibition,[2],106%
same,inhibition,[3],43%
same,inhibition,[4],-2%
same,inhibition,[5],27%
same,inhibition,[6],-5%
same,inhibition,[7],-7%
same,inhibition,[8],3%
same,inhibition,[9],2%
same,inhibition,[10],-3%
same,inhibition,[11],0%
same,inhibition,[12],2%
same,inhibition,[13],26%
same,inhibition,[14],85%
same,inhibition,[15],6%
same,inhibition,[16],87%
same,inhibition,[17],5%
same,inhibition,[18],4%
same,inhibition,[19],24%
same,inhibition,[20],-1%
same,inhibition,[21],28%
same,inhibition,[22],4%
same,inhibition,[23],42%
same,Tmax,[24],2 h
same,AUC,[25],37438 ng·h/g
same,inhibition,Mus musculus [26],Dose-dependent effect
same,inhibition,Mus musculus [27],Active
same,ILS at 25 mg/kg,U-87 MG [28],103%
same,ILS at 50 mg/kg,U-87 MG [29],162%
same,Activity,Mus musculus [30],Non-Toxic

# — ChEMBL document CHEMBL4251601 (Eur J Med Chem, 2018)
